From patent publication US5158939A, “Method of stimulating the immune systems of animals and compositions useful therefor” (priority 1990, dated 1992)
“Also recorded” adds a separate entry of the source.

Legend:
peritoneal macrophages = assay: Induction of IL-1 in thioglycollate-elicited peritoneal macrophages (comitogenic thymocyte assay); format: cell-based, BDF1 mice; conditions: for IL-1 induction, CPM: SD in parentheses; for induction of IL-1 release: DPLA alone 0.1, 1.0, 10 μg/ml
Method: 1L-1 assay--Peritoneal exudate cells were harvested from BDF1 mice 48 h after an intraperitoneal injection of thioglycollate. […] Macrophages were either pretreated with R. sphaeroides DPLA (0.1-10 μg/ml) followed by the addition of toxic Re LPS (0.1 μg) after 2 h, or immediately stimulated with Re LPS (0.01-1.00 μg/ml). Control wells were treated with 10 μl of media containing 0.5% triethylamine. Cultures were incubated at 37° C. in the presence of 5% CO2 for 18 h at which time the supernatants were collected and frozen at -20° C. until assayed. 1L-1 activity was determined by the comitogenic thymocyte assay.^25
Peritoneal exudate cells were harvested from BDF1 mice 48 h after an intraperitoneal injection of thioglycollate as described previously (Lederer and Czuprynki). Macrophages were either pretreated with R. sphaeroides DPLA (0.1-10 μg/ml) followed by addition of toxic ReLPS (0.1 μg), or immediately stimulated with ReLPS (0.01-1.00 μg/ml). Control wells were treated with 10 μl of media with 0.5% triethylamine. Cultures were incubated at 37° C. in the presence of 5% CO2 for 18 h at which time the supernatants were collected and frozen at -20° C. until assayed.
ReLPS was added to the culture 2 h after adding the R. sphaeroides DPLA. […] Standard deviation in CPM are given in parentheses.

[1] = Toxicity / endotoxic activity (general statements); conditions: in words
serum TNF = assay: Serum TNF rise after E. coli LPS in mice; format: in vivo; conditions: RsDPLA 100 μg and 1 mg, 60 and 90 min before E. coli LPS 1 μg and 5 μg i.p.
RAW 264.7 cells = assay: TNF production by RAW 264.7 cells, dilution for 50% killing of indicator cell line L929; format: cell-based, murine; conditions: for Dilution to get 50% killing: Table 1
Method: The TNF unit is derived by determining how far one can dilute the supernatant of the culture to achieve 50% killing of an indicator cell line.
TNF unit was derived by determining dilution of culture supernatant that kills 50 percent of the indicator cell line.
DPLA was added 2 hours before exposing culture to ReLPS. The ReLPS and DPLA were complexed with bovine serum albumin.^1

CCCCCCC=CCCCCCC(=O)OC(CCCCCCCCCCC)CC(=O)NC1C(OCC2OC(OP(=O)(O)O)C(NC(=O)CC(=O)CCCCCCCCCCC)C(OC(=O)CC(O)CCCCCCC)C2O)OC(CO)C(OP(=O)(O)O)C1OC(=O)CC(O)CCCCCCC (stereo not shown) [DPLA]
IL-1 induction, CPM (peritoneal macrophages; DPLA 1.0 μg/ml 2 h before ReLPS 0.1 μg/ml): 28,276 (4860) CPM
IL-1 induction, CPM - Blank (peritoneal macrophages; DPLA 1.0 μg/ml + ReLPS 0.1 μg/ml): 20,491 CPM
IL-1 induction, CPM (peritoneal macrophages; DPLA 10.0 μg/ml 2 h before ReLPS 0.1 μg/ml): 5,892 (886) CPM
IL-1 induction, CPM - Blank (peritoneal macrophages; DPLA 10.0 μg/ml + ReLPS 0.1 μg/ml): 0 CPM
% Inhibition of IL-1 induction by ReLPS (peritoneal macrophages; DPLA 10.0 μg/ml, ReLPS 0.1 μg/ml (1:100)): total
IL-1 induction, CPM - Blank (peritoneal macrophages; DPLA alone 0.1 μg/ml): 0 CPM
IL-1 induction, CPM (peritoneal macrophages; DPLA alone 0.1 μg/ml): 3,511 (616) CPM
IL-1 induction, CPM - Blank (peritoneal macrophages; DPLA alone 1.0 μg/ml): 0 CPM
IL-1 induction, CPM (peritoneal macrophages; DPLA alone 1.0 μg/ml): 2,911 (383) CPM
IL-1 induction, CPM - Blank (peritoneal macrophages; DPLA alone 10.0 μg/ml): 0 CPM
IL-1 induction, CPM (peritoneal macrophages; DPLA alone 10.0 μg/ml): 3,764 (785) CPM
induction of IL-1 release (peritoneal macrophages; in words): unable to induce interleukin-1 release; also recorded: no IL-1/releasing activity
induction of IL-1 release (peritoneal macrophages; in words, listed as pentaacyl DPLA): unable to induce 1L-1
blocking of ReLPS-induced IL-1 release (peritoneal macrophages; in words): blocked this activity by toxic deep rough chemotype LPS; also recorded: antogonize the induction of IL-1 release by toxic Re LPS; also recorded: blocked the release of IL-1
endotoxic activity [1]: nontoxic
endotoxic activity ([1]; listed as R. sphaeroides DPLA): not endotoxic
endotoxic activity ([1]; listed as pentaacyl DPLA): lacks endotoxic activity; also recorded: no endotoxic activity
rise in serum TNF (serum TNF): blocked a rise in serum TNF
induction of TNF (RAW 264.7 cells; DPLA alone 10^4 ng/ml): measurable but low level in the induction of TNF
inhibition at 0.01 µg/mL (RAW 264.7 cells; Mus musculus, RAW264.7, Table 3, DPLA 10 ng/ml, ReLPS 1.0 ng/ml (ReLPS:DPLA 1:10), read-out: Inhibition of induction of TNF by ReLPS): 55%
inhibition at 0.1 µg/mL (RAW 264.7 cells; Mus musculus, RAW264.7, Table 3, DPLA 100 ng/ml, ReLPS 1.0 ng/ml (1:100), read-out: Inhibition of induction of TNF by ReLPS): 95%
inhibition at 10 µg/mL (RAW 264.7 cells; Mus musculus, RAW264.7, Table 3, DPLA 10000 ng/ml, ReLPS 1.0 ng/ml (1:10^4), read-out: Inhibition of induction of TNF by ReLPS): 81%
induction of TNF (RAW 264.7 cells; RAW 264.7 cells, indicator cell line L929): not effective in the induction of TNF; also recorded: lack of induction
blocking of TNF induction by ReLPS (RAW 264.7 cells; RAW 264.7 cells, in words): effectively antagonize the induction of TNF by toxic ReLPS in a dose-dependent manner; also recorded: block the induction of cachectin (TNF); also recorded: blocking of induction
Dilution to get 50% killing (RAW 264.7 cells; DPLA 10 ng/ml 2 h before ReLPS 1.0 ng/ml): 829
Dilution to get 50% killing (RAW 264.7 cells; DPLA 100 ng/ml 2 h before ReLPS 1.0 ng/ml): 112
Dilution to get 50% killing (RAW 264.7 cells; DPLA 1000 ng/ml 2 h before ReLPS 1.0 ng/ml): 86
Dilution to get 50% killing (RAW 264.7 cells; DPLA 10,000 ng/ml 2 h before ReLPS 1.0 ng/ml): 234
Dilution to get 50% killing (RAW 264.7 cells; DPLA alone 10 ng/ml): 0
Dilution to get 50% killing (RAW 264.7 cells; DPLA alone 100 ng/ml): 0
Dilution to get 50% killing (RAW 264.7 cells; DPLA alone 1000 ng/ml): 71
Dilution to get 50% killing (RAW 264.7 cells; DPLA alone 10,000 ng/ml): 346
Dilution for 50% killing (RAW 264.7 cells; Table 3, DPLA 10 ng/ml 2 h before ReLPS 1.0 ng/ml): 2287
Dilution for 50% killing (RAW 264.7 cells; Table 3, DPLA 100 ng/ml 2 h before ReLPS 1.0 ng/ml): 269
Dilution for 50% killing (RAW 264.7 cells; Table 3, DPLA 1000 ng/ml 2 h before ReLPS 1.0 ng/ml): 201
Dilution for 50% killing (RAW 264.7 cells; Table 3, DPLA 10000 ng/ml 2 h before ReLPS 1.0 ng/ml): 973
Dilution for 50% killing (RAW 264.7 cells; Table 3, DPLA alone 10 ng/ml, complexed with BSA): < 10
Dilution for 50% killing (RAW 264.7 cells; Table 3, DPLA alone 100 ng/ml, complexed with BSA): 19
Dilution for 50% killing (RAW 264.7 cells; Table 3, DPLA alone 1000 ng/ml, complexed with BSA): 201
Dilution for 50% killing (RAW 264.7 cells; Table 3, DPLA alone 10000 ng/ml, complexed with BSA): 764
